pIC50: −log10 of the molar value.

The target of the first assay is T1, recombinant CREBBP bromodomain (Homo sapiens, UniProt Q92793).
T1 construct: recombinant CREBBP bromodomain obtained from BPS Bioscience, USA; purchased BPS Bioscience, USA
T1 sequence (Q92793 1085-1192 limits assumed): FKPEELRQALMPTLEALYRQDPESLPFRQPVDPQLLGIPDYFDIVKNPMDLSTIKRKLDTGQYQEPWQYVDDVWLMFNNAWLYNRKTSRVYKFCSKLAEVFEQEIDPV
Description: CBP TR-FRET displacement assay. It is filed as binding. Particulars: compound at 10 μM. The procedure: The potency of compounds to inhibit CREBBP enzyme was tested in a TR-FRET displacement assay using recombinant CREBBP bromodomain obtained from BPS Bioscience, USA. The assay buffer was 50 mM HEPES (pH 7.5), 50 mM NaCl, 0.008% Brij 35, 0.01% BSA, 1 mM TCEP. 50 nM of CREBBP & 500 nM of Biotinylated ligand was incubated at room temperature for 30 minutes, the reaction was initiated by adding pre-incubated enzyme ligand mixture to the test compounds. After 60 min incubation, the reaction was stopped by the addition of stop mix containing 1 nM of LANCE Europium-anti-6xHis antibody (Perkin Elmer, USA) and 40 nM of Sure Light Allophycocyanin-Streptavidin (Perkin Elmer, USA). Fluorescence emission of the samples at 665 and 615 nm were measured at an excitation of 340 nm and their ratio was plotted against the compound concentrations to generate dose-response curve. The percent inhibition of the test compounds is calculated using the ratio of enzyme activity controls.
elected compounds of the present invention were screened in the above-mentioned assay procedures and IC50 values were determined by fitting the dose-response data to sigmoidal curve fitting equation using Graph pad prism software V7.
Background: Time-resolved FRET reads energy transfer from a long-lived donor to a nearby acceptor.
With `COc1cc(N2CCN(C)c3ccc(S(C)(=N)=O)cc32)c2cc(C)c(=O)n(C)c2c1` (stereo not drawn) [Example 101], the inhibition at 10 µM was found to be 27%.
On to `COc1cc(N2CCN(C)c3cc(N4CCCCC4=O)ncc32)c2cc(C)c(=O)n(C)c2c1` [Example 126], for which the inhibition at 10 µM was 46%.
Turning to `COc1cc2c(cc1-c1cnn(C)c1)CCCN2c1cccc2[nH]c(=O)c(C)cc12` [Example 188], the inhibition at 10 µM stood at 25%.
For `Cc1cc2c(N3CCc4ccc(-c5cnn(C)c5)cc4C3)cccc2n(C)c1=O` [Example 190], the inhibition at 10 µM was 52%.
On the same count and under the same terms, with `CNC(=O)c1ccc(-c2cc3c(cc2C(F)F)N(c2cc(OC)cc4c2cc(C)c(=O)n4C)CCC3)cn1` [Example 192, 5-(7-(Difluoromethyl)-7′-methoxy-1′,3′-dimethyl-2′-oxo-1′,2′,3,4-tetrahydro-2H-[1,5′-biquinolin]-6-yl)-N-methylpicolinamide] the figure was 47%.

Still in this assay, the particulars now being: dose-response, read-out: IC50 (group A, B, C).
As to `CC(=O)NS(=O)(=O)c1ccc2c(c1)N(c1cc(N3CC[C@@H](O)C3)cc3c1cc(C)c(=O)n3C)CCN2C` [Example 105], the negative logarithm of the IC50 (pIC50) is greater than 7.30.
Turning to `COc1cc(N2CCN(C)c3cc(C4CC4)c(S(=O)(=O)NC(C)=O)cc32)c2cc(C)c(=O)n(C)c2c1` [Example 109], the negative logarithm of the IC50 (pIC50) is greater than 7.30.
Same read-out and setting: in the case of `COc1cc(N2CCN(C)c3cc(C4=CCCC4)c(S(=O)(=O)NC(C)=O)cc32)c2cc(C)c(=O)n(C)c2c1` [Example 110] it was greater than 7.30; in that of `COc1cc(N2CCN(C)c3ccc(S(=O)(=O)NC(=O)C(C)(C)C)cc32)c2cc(C)c(=O)n(C)c2c1` [Example 111], less than 8.00.
In the case of `COc1cc(N2CCN(C)c3cc(S(N)(=O)=O)ccc32)c2cc(C)c(=O)n(C)c2c1` [Example 114, 1-(7-Methoxy-1,3-dimethyl-2-oxo-1,2-dihydroquinolin-5-yl)-4-methyl-1,2,3,4-tetrahydroquinoxaline-6-sulfonamide], the negative logarithm of the IC50 (pIC50) is less than 8.00.
On to `Cc1cc2c(N3CCN(C)c4ccc(C#N)cc43)cccc2[nH]c1=O` [Example 115, 1-Methyl-4-(3-methyl-2-oxo-1,2-dihydroquinolin-5-yl)-1,2,3,4-tetrahydroquinoxaline-6-carbonitrile], for which the negative-log IC50 (pIC50) was greater than 7.30.
Consider `COc1cc(N2CCN(C)c3cc(C(F)(F)F)ncc32)c2cc(C)c(=O)n(C)c2c1` [Example 124], for which the negative logarithm of the IC50 (pIC50) is 7.00 to 7.29.
With `Cc1cc2c(N3CCN(C)c4cc(-c5cnn(C)c5)ncc43)cc(OCCN3CCOCC3)cc2n(C)c1=O` [Example 128], the negative logarithm of the IC50 (pIC50) was 7.00 to 7.29.
For the compound `Cc1cc2c(N3CCN(C)c4cc(-c5ccsc5)ncc43)cc(N3CCOCC3)cc2n(C)c1=O` [Example 140], the negative logarithm of the IC50 (pIC50) was greater than 7.30.
For the compound `Cc1cc2c(N3CCN(C)c4cc(S(=O)(=O)C(C)C)ncc43)cc(N3CCOCC3)cc2n(C)c1=O` [Example 141], the pIC50 is 7.00 to 7.29.
Turning to `Cc1cc2c(N3CCN(C)c4cc(-c5cnn(C)c5)ncc43)cc(C3CCOC3)cc2n(C)c1=O` (stereo not drawn) [Example 142], the pIC50 was greater than 7.30.
For the compound `Cc1cc2c(N3CCN(C)c4cc(-c5cnn(C)c5)ncc43)cc(C3CCOCC3)cc2n(C)c1=O` [Example 143], the negative logarithm of the IC50 (pIC50) is 7.00 to 7.29.
On to `Cc1cc2c(N3CC(C)N(C)c4cc(-c5cnn(C)c5)ncc43)cc(N3CCOCC3)cc2n(C)c1=O` (stereo not drawn) [Example 144], for which the pIC50 was 7.00 to 7.29.
On to `Cc1cc2c(N3CCN(C)c4cc(-c5cnn(C)c5)ncc43)cc(O)cc2n(C)c1=O` [Example 145, 7-Hydroxy-1,3-dimethyl-5-(1-methyl-7-(1-methyl-1H-pyrazol-4-yl)-2,3-dihydropyrido[3,4-b]pyrazin-4(1H)-yl)quinolin-2(1H)-one], for which the pIC50 was 7.00 to 7.29.
As to `Cc1cc2c(N3CCN(C)c4cc(-c5cnn(C)c5)ncc43)cc(C#CCO)cc2n(C)c1=O` [Example 155, 7-(3-Hydroxyprop-1-yn-1-yl)-1,3-dimethyl-5-(1-methyl-7-(1-methyl-1H-pyrazol-4-yl)-2,3-dihydropyrido[3,4-b]pyrazin-4(1H)-yl)quinolin-2(1H)-one], the pIC50 is 7.00 to 7.29.
`Cc1cc2c(N3CCN(C)c4cc(-c5cnn(C)c5)ncc43)cc(OC3CCOCC3)cc2n(C)c1=O` [Example 158]: the pIC50 is greater than 7.30.
On the same count and under the same terms, in the case of `Cc1cc2c(N3CCN(C)c4cc(-c5cnn(C)c5)[n+]([O-])cc43)cc(N3CCOCC3)cc2n(C)c1=O` [Example 160, 4-(1,3-Dimethyl-7-morpholino-2-oxo-1,2-dihydroquinolin-5-yl)-1-methyl-7-(1-methyl-1H-pyrazol-4-yl)-1,2,3,4-tetrahydropyrido[3,4-b]pyrazine 6-oxide] it was less than 8.00; in that of `Cc1cc2c(N3CCCc4cc(-c5cnn(C)c5)ncc43)cc(N3C[C@H]4C[C@@H]3CO4)cc2n(C)c1=O` [Example 168], greater than 7.30.
Consider `Cc1cc2c(N3CCCc4cc(-c5cnn(C)c5)ncc43)cc(N3CCOCC3)cc2n(C)c1=O` [Example 169], for which the pIC50 is greater than 7.30.
Consider `Cc1cc2c(N3CCSc4cc(-c5cnn(C)c5)ncc43)cc(N3CCOCC3)cc2n(C)c1=O` [Example 171], for which the pIC50 is greater than 7.30.
For the compound `CC(=O)N1CCN(c2cc3c(cc2C(F)F)N(c2cc(N4CCOCC4)cc4c2cc(C)c(=O)n4C)CCC3)CC1` [Example 174, 6-(4-Acetylpiperazin-1-yl)-7-(difluoromethyl)-1′,3′-dimethyl-7′-morpholino-3,4-dihydro-2H-[1,5′-biquinolin]-2′(1′H)-one], the pIC50 was 7.00 to 7.29.
Same read-out and setting: in the case of `COc1cc(N2CCCc3ccc(C(F)F)cc32)c2cc(C)c(=O)n(C)c2c1` [Example 175] it was less than 8.00; in that of `Cc1cc2c(N3CCCc4cc(-c5cnn(C)c5)c(C(F)F)cc43)cc(N3CC[C@@H](O)C3)cc2n(C)c1=O` [Example 177], 7.00 to 7.29.
For the compound `COc1cc(N2CCCc3ccc(C#N)cc32)c2cc(C)c(=O)n(C)c2c1` [Example 184], the negative logarithm of the IC50 (pIC50) was less than 8.00.
For `COc1cc(N2CCCc3cc(N4CCN(C(C)=O)CC4)ccc32)c2cc(C)c(=O)n(C)c2c1` [Example 185], the pIC50 is less than 8.00.
On the same count and under the same terms, in the case of `CNC(=O)c1ccc(-c2ccc3c(c2)CCCN3c2cc(OC)cc3c2cc(C)c(=O)n3C)cn1` [Example 186] it was 7.00 to 7.29.
In the case of `CNC(=O)C1CCN(c2ccc3c(c2)CCCN3c2cc(OC)cc3c2cc(C)c(=O)n3C)CC1` [Example 187], the pIC50 is less than 8.00.
For the compound `COc1cc(N2CCc3cccc(-c4cnn(C)c4)c3C2)c2cc(C)c(=O)n(C)c2c1` [Example 189], the pIC50 was less than 8.00.
`COc1cc(N2CCc3c(c(-c4cnn(C)c4)nn3C)C2)c2cc(C)c(=O)n(C)c2c1` [Example 191]: the pIC50 was less than 8.00.
With `Cc1cc2c(N3CCCc4cc(-c5cnn(C)c5)c(C(F)F)cc43)nc(N3CC(O)C(O)C3)cc2n(C)c1=O` (stereo not drawn) [Example 213], the negative logarithm of the IC50 (pIC50) was greater than 7.30.
On the same count and under the same terms, with `CC(=O)NC1CCN(c2cc3c(cc(C)c(=O)n3C)c(N3CCCc4cc(-c5cnn(C)c5)c(C(F)F)cc43)n2)C1` (stereo not drawn) [Example 216] the figure was greater than 7.30.
Still for that read-out and setting: with `Cc1cc2c(N3CCN(C)c4cc(-c5cnn(C)c5)ncc43)nc(N3C4CCC3COC4)cc2n(C)c1=O` [Example 221] the figure was less than 8.00.
On to `Cc1cc2c(N3CCCc4cc(-c5cnn(C)c5)c(C(F)F)cc43)nc(N3CCC(C)(N)CC3)cc2n(C)c1=O` [Example 222], for which the negative-log IC50 (pIC50) was greater than 7.30.
Turning to `Cc1cc2c(N3CCCc4cc(-c5cnn(C)c5)c(C(F)F)cc43)nc(N3CCN(C)CC3)cc2n(C)c1=O` [Example 223], the pIC50 is greater than 7.30.
The same measure, in the same setting: in the case of `Cc1cc2c(N3CCCc4cc(C5CCCO5)c(C(F)F)cc43)nc(N3CC[C@@H](O)C3)cc2n(C)c1=O` (stereo partly drawn) [Example 227] it was 7.00 to 7.29.
For the compound `Cc1cc2c(N3CCCc4cc(C5CCOC5)c(C(F)F)cc43)nc(N3CC[C@@H](O)C3)cc2n(C)c1=O` (stereo partly drawn) [Example 228], the negative logarithm of the IC50 (pIC50) was greater than 7.30.
Still for that read-out and setting: in the case of `COc1cc2c(cc1-c1cnn(C)c1)CCCN2c1nc(N2CCC(O)C2)cc2c1cc(C)c(=O)n2C` (stereo not drawn) [Example 232] it was 7.00 to 7.29; in that of `Cc1cc2c(N3CCCc4cc(-c5cccn(C)c5=O)c(C(F)F)cc43)nc(C3CCOCC3)cc2n(C)c1=O` [Example 235, 5-(7-(difluoromethyl)-6-(1-methyl-2-oxo-1,2-dihydropyridin-3-yl)-3,4-dihydroquinolin-1(2H)-yl)-1,3-dimethyl-7-(tetrahydro-2H-pyran-4-yl)-1,6-naphthyridin-2(1H)-one], greater than 7.30.
As for `Cc1cc2c(N3CCCc4cc(N5CC(C)NC(C)C5)c(C(F)F)cc43)nc(C3CCOCC3)cc2n(C)c1=O` (stereo not drawn) [Example 236], the pIC50 is greater than 7.30.
Regarding `Cc1cc2c(N3CCCc4cc(N5CCC(C)(N)CC5)c(C(F)F)cc43)nc(C3CCOCC3)cc2n(C)c1=O` [Example 237], the negative-log IC50 (pIC50) was greater than 7.30.
Regarding `COc1cc2c(cc1-c1cnn(C)c1)CCCN2c1nc(C2CCOCC2)cc2c1cc(C)c(=O)n2C` [Example 238], the pIC50 was greater than 7.30.
On to `COc1cc2c(cc1-c1cnn(C)c1)C(C)CCN2c1nc(C2CCOCC2)cc2c1cc(C)c(=O)n2C` (stereo not drawn) [Example 239], for which the negative-log IC50 (pIC50) is 7.00 to 7.29.
Consider `Cc1cc2c(N3CCCc4cc(-c5cnn(C)c5)c(O)cc43)nc(C3CCOCC3)cc2n(C)c1=O` [Example 244, 5-(7-Hydroxy-6-(1-methyl-1H-pyrazol-4-yl)-3,4-dihydroquinolin-1(2H)-yl)-1,3-dimethyl-7-(tetrahydro-2H-pyran-4-yl)-1,6-naphthyridin-2(1H)-one], for which the pIC50 is greater than 7.30.

By inhibition is commonly meant the share of the control response that was lost under treatment. A word on the pIC50: it is the IC50 on a negative log10 scale, so that one unit is a factor of ten.

For the origin of these results see US20230322724A1, “HETEROCYCLIC COMPOUNDS AS CBP/EP300 BROMODOMAIN INHIBITORS” (AURIGENE ONCOLOGY LIMITED, priority 2020, published 2023).
